Results on 7 molecules are retold here after patent publication US12173002B2, “PRMT5 inhibitors and methods of use” (SHANGHAI APEIRON THERAPEUTICS COMPANY LIMITED, priority 2022, dated 2024).

One data set concerns the target hERG ion channel (Homo sapiens, UniProt Q12809). The data set is described as follows: hERG ion channel inhibition experiment (manual patch clamp, HEK293 cells). In kind it is cell-based. The note with it: HEK293 cells stably expressing hERG, whole-cell patch clamp, n=2. Here is the method: III. hERG Ion Channel Inhibition Experiment
(§1) The compounds used in this experiment are specific embodiments of the present invention, with reference to compound AMG473 as an example from Amgen's patent WO 2022/169948A1, identified as example 473.
2. Cell Line and Cell Culture
Stably expressing hERG ion channel HEK293 cell line (Catalog: K1236) was purchased from Invitrogen. This cell line was cultured in a medium containing 85% DMEM, 10% dialyzed fetal bovine serum, 0.1 mM non-essential amino acid solution, 100 U/mL penicillin-streptomycin solution, 25 mM HEPES, 5 μg/mL blasticidin, and 400 μg/mL geneticin. When the cell density reached 40%˜80% of the culture dish area, digestion was performed using trypsin, and cells were passaged three times per week. Before the experiment, cells were cultured at a density of 5×10′ in 3.5 cm culture dishes, induced with […] Doxycycline for 48 hours. Subsequently, cells were digested and seeded onto slides for subsequent manual patch clamp experiments.)
3. Experimental Procedure
• 1) Place glass slides containing HEK293 cells in the perfusion chamber of the micro-manipulation station. • 2) Under an Olympus IX71 or IX73 inverted microscope, position suitable cells in the central field of view using a ×10 objective. Locate the tip of the glass electrode in the central field. Use the micromanipulator to lower the electrode while adjusting the coarse focus spiral to slowly approach the cell. • 3) When approaching the cell rapidly, switch to a ×40 objective for observation. Fine-tune the electrode approach using the micromanipulator to gradually reach the cell's surface. • 4) Apply negative pressure to establish 1GQ seal between the electrode tip and the cell membrane. • 5) Compensate for the transient capacitance current Cfast under voltage clamp mode. Then, repeat the brief negative pressure application for membrane rupture, ultimately reaching the whole-cell recording mode. • 6) Under voltage clamp at −60 mV, compensate for slow capacitance current Cslow, cell membrane capacitance (Cm), and input membrane resistance (Ra). • 7) Once the cell is stable, change the clamping voltage to −90 mV, set the sampling frequency to 20 kHz, and the filtering frequency to 10 kHz. Leak current detection conditions involve changing the clamping voltage to −80 mV for a duration of 500 ms. • 8) The hERG current testing method is as follows: Apply a 4.8-second depolarization command voltage to depolarize the membrane potential from −80 mV to +30 mV, then instantly apply a 5.2-second repolarization voltage to reduce the membrane potential to −50 mV to remove channel inactivation, allowing observation of the hERG tail current. The peak of the tail current represents the size of the hERG current. • 9) The hERG current […] is continuously recorded for 120 seconds before administration to assess the stability of the tested cells in producing hERG currents. Only stable cells within an acceptable range are eligible for subsequent compound testing. • 10) Testing the inhibitory effect of the test compound on hERG current: First, determine the baseline of hERG current obtained in extracellular fluid containing 0.1% DMSO. After maintaining stable hERG current for at least 5 minutes, sequentially perfuse the solution containing the test compound around the cells from low to high concentrations. After each perfusion, wait for about 5 minutes to allow the compound to act on the cells and simultaneously record hERG currents. Record the last 5 hERG current values after the recorded current stabilizes, and take their average as the final current value at a specific concentration. […] Meanwhile, positive compound dofetilide is synchronously detected before and after the end of the test drug experiment using the same patch clamp system to ensure the reliability and sensitivity of the entire detection system. The above test steps will be repeated on two separate test cells (n=2). 4. Data Analysis […]
For orientation: Block of hERG is tested as a sign of cardiac risk.

Data set [1] can be described thus: Mouse pharmacokinetic experiment. In kind it is in vivo. Conditions: male, ICR mice, plasma. Here is the method:
II. Mouse Pharmacokinetic Experiment 1. Test Compounds
as §1
ICR male mice, N=3/group; sourced from Zhejiang Vital River Laboratory Animal Technology Co., Ltd.
3. Drug Preparation and Administration
Single oral (PO) administration to ICR mice: Compounds were dissolved in dimethyl sulfoxide, added to polyethylene glycol 400 and sterile water, and then adjusted to a clear solution with a small amount of 1 mol/L hydrochloric acid. After overnight fasting, the mice were orally gavaged with a dose of 10 mg/kg.
Single intravenous (IV) administration to ICR mice: Compounds were dissolved in dimethyl sulfoxide, added to polyethylene glycol 400 and sterile water, and then adjusted to a clear solution with a small amount of 1 mol/L hydrochloric acid. After overnight fasting, the mice received tail vein injections with a dose of 3 mg/kg.
Approximately 30 μL/time point blood samples were collected via the tail vein. Potassium ethylenediaminetetraacetate was used as an anticoagulant, and samples were centrifuged at 4000 g/min for 5 minutes at 4° C. within 1 hour. Blood sampling time points were 0.0833 (IV), 0.25, 0.5, 1, 2, 4, 6, 8, 24 hours. Samples were stored in a −20° C. freezer.
Plasma samples (30 μL, 10 μL sample+20 μL blank plasma) were mixed with 200 μL ice-cold acetonitrile containing internal standards. After vortexing for 30 seconds, samples were centrifuged at 4000 g/min for 20 minutes. One hundred microliters of the supernatant were transferred to a 96-well plate, followed by the addition of 200 μL ultrapure water. After vortexing for 30 seconds, 5 μL or 10 μL were injected into LC-MS/MS for analysis.

For data set [2], the system named is HCT-116 MTAP(−/−) deficient cells. The data set can be described thus: Inhibitory activity on proliferation of HCT-116 MTAP(−/−) deficient cells (Cell-Titer Glo, 8 days). The note with it: Homo sapiens, HCT-116, 192 h, 8 days incubation. The class given is cell-based. On the procedure: Test 1: Compound's inhibitory activity on proliferation of HCT-116 MTAP(−/−) deficient cells. P Materials and Cells: HCT-116 MTAP(−/−) deficient cells obtained from Kyinno Bio (China); RPMI-1640 medium, fetal bovine serum, and penicillin-streptomycin purchased from Thermo Fisher Scientific (America); 384-well plates from PerkinElmer (America); Cell-Titer Glo assay kit from Promega (America).
Cell Culture: HCT116 MTAP(−/−) deficient cells were cultured in RPMI 1640 medium containing 10% fetal bovine serum and 1% penicillin-streptomycin at 37° C., 5% CO2. Only cells in logarithmic growth phase were used for experiments.
Cell Proliferation Inhibition Assay: The compound's inhibitory activity on HCT-116 MTAP(−/−) deficient cells was assessed using the Cell-Titer Glo assay kit. Adjusting cell concentration, 40 μL was seeded into a 384-well plate and cultured overnight at 37° C., 5% CO2. Each well received 40 nL of the compound, achieving concentrations from 0 to 10,000 nM (starting concentration 10,000 nM, 3-fold dilution, 10 points), with 0.1% DMSO. The cell plate was incubated for 8 days at 37° C., 5% CO2. Cell-Titer Glo reagent (40 μL) was added to measure cell viability.

The test system of data set [3] is HCT-116 MTAP wild-type cells. The data set can be described thus: Inhibitory activity on proliferation of HCT-116 MTAP wild-type cells (Cell-Titer Glo, 8 days). The class given is cell-based. Conditions: Homo sapiens, HCT-116, 192 h, 8 days incubation. Here is the method: Test 2: Compound's inhibitory activity on proliferation of HCT-116 MTAP wild-type cells.
Materials and Cells: HCT-116 MTAP wild-type cells obtained from Kyinno Bio (China); RPMI-1640 medium, fetal bovine serum, and penicillin-streptomycin purchased from Thermo Fisher Scientific (America); 384-well plates from PerkinElmer (America); Cell-Titer Glo assay kit from Promega (America).
Cell Culture: HCT116 MTAP wild-type cells were cultured in RPMI 1640 medium containing 10% fetal bovine serum and 1% penicillin-streptomycin at 37° C., 5% CO2. Only cells in logarithmic growth phase were used for experiments.
Cell Proliferation Inhibition Assay: The compound's inhibitory activity on HCT-116 MTAP wild-type cells was assessed using the Cell-Titer Glo assay kit. Adjusting cell concentration, 40 μL was seeded into a 384-well plate and cultured overnight at 37° C., 5% CO2. Each well received 40 nL of the compound, achieving concentrations from 0 to 10,000 nM (starting concentration 10,000 nM, 3-fold dilution, 10 points), with 0.1% DMSO. The cell plate was incubated for 8 days at 37° C., 5% CO2. Cell-Titer Glo reagent (40 μL) was added to measure cell viability.

Structures are written as SMILES.

Sequence of hERG ion channel (Q12809 whole entry): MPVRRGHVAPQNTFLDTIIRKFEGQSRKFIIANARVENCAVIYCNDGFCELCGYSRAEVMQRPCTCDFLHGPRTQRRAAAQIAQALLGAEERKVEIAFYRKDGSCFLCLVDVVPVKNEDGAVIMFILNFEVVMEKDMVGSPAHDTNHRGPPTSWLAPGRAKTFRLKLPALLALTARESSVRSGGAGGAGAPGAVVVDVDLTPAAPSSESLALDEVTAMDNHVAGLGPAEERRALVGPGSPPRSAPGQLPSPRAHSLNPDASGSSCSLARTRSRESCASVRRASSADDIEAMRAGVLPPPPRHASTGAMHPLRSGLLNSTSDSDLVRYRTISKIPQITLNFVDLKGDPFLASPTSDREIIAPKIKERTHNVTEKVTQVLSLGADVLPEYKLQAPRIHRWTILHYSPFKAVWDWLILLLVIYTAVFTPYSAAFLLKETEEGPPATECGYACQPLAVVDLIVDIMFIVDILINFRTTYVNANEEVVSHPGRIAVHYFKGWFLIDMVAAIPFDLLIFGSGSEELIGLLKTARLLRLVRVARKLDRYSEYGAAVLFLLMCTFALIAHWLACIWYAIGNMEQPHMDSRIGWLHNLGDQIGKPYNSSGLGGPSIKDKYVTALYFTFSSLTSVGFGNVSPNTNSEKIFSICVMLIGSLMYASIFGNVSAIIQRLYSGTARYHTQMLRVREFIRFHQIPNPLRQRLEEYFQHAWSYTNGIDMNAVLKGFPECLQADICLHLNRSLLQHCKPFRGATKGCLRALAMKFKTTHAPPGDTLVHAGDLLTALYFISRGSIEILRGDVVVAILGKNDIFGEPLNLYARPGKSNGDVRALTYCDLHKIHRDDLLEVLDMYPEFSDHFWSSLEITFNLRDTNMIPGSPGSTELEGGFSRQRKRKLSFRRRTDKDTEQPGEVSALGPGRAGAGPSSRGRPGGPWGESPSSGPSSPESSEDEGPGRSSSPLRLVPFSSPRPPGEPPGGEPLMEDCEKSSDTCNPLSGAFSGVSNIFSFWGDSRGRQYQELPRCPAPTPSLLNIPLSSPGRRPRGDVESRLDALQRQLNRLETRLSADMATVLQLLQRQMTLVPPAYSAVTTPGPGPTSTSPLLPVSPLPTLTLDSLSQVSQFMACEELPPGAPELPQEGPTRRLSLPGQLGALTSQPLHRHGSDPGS

For `CN(C(=O)c1ccc2nc(N)c3cncn3c2c1)[C@@H]1COc2cc(C(F)(F)C(F)(F)F)ccc21` [Example 130, (S)-4-amino-N-methyl-N-(6-(perfluoroethyl)-2,3-dihydrobenzofuran-3-yl)imidazo[1,5-a] quinoxaline-8-carboxamide], the IC50 at hERG ion channel is 1.36 µM. In data set [1] (IV 3 mg/kg), the AUC(0-t) was 10.8 µg·h/mL and the half-life was 4.5 h. In data set [1] (PO 10 mg/kg), this molecule gave an AUC(0-t) of 28.3 µg·h/mL and a half-life of 3.34 h.

At hERG ion channel, `[2H]C([2H])([2H])N(C(=O)c1cc2c(cc1F)nc(N)c1cncn12)[C@@H]1COc2cc(C(F)(F)F)ccc21` [Example 41, (S)-4-amino-7-fluoro-N-(methyl-d3)-N-(6-(trifluoromethyl)-2,3-dihydrobenzofuran-3-yl)imidazo[1,5-a] quinoxaline-8-carboxamide] gave a half-maximal inhibitory concentration (IC50) of 8.16 µM. Moreover, in data set [1] (IV 3 mg/kg), the AUC(0-t) was 5.42 µg·h/mL and the half-life is 4.3 h. In data set [1] (PO 10 mg/kg), the AUC(0-t) turned out to be 46.3 µg·h/mL and the half-life was 4.12 h.

Regarding `CN(C(=O)c1ccc2nc(N)c3cncn3c2c1)[C@@H]1COc2cc(C(F)(F)F)ccc21` [Example 107, (S)-4-amino-N-methyl-N-(6-(trifluoromethyl)-2,3-dihydrobenzofuran-3-yl)imidazo[1,5-a] quinoxaline-8-carboxamide], the IC50 against hERG ion channel worked out at 4.5 µM. In addition, in data set [1] (IV 3 mg/kg), the AUC(0-t) was found to be 11.2 µg·h/mL and the half-life is 4.53 h. In data set [1] (PO 10 mg/kg), this molecule gave an AUC(0-t) of 44.1 µg·h/mL and a half-life of 4.56 h.

The molecule `[2H]C([2H])([2H])N(C(=O)c1ccc2nc(N)c3cncn3c2c1)[C@@H]1COc2cc(C(F)(F)F)ccc21` [Example 16, (S)-4-amino-N-(methyl-d3)-N-(6-(trifluoromethyl)-2,3-dihydrobenzofuran-3-yl)imidazo[1,5-a] quinoxaline-8-carboxamide] yielded a 50% inhibitory concentration (IC50) against hERG ion channel of 2.3 µM. In addition, in data set [1] (IV 3 mg/kg), the AUC(0-t) stood at 9.71 µg·h/mL and the half-life is 3.65 h. Further, in data set [1] (PO 10 mg/kg), the AUC(0-t) was 42.5 µg·h/mL and the half-life is 3.31 h.

Consider `CN(C(=O)c1ccc2nc(N)c3cncn3c2c1)[C@@H]1COc2cc(S(F)(F)(F)(F)F)ccc21` (single isomer, unassigned) [Example 104], for which the IC50 on hERG ion channel was 1.51 µM; in data set [2], 0.0046 µM; in data set [3], 0.591 µM. Further, the exposure AUC(0-t) in data set [1] (IV 3 mg/kg) was 10.5 µg·h/mL; in data set [1] (PO 10 mg/kg), 26.5 µg·h/mL. Moreover, the half-life in data set [1] (IV 3 mg/kg) was 6.1 h; in data set [1] (PO 10 mg/kg), 5.02 h. The bioavailability in data set [1] (PO 10 mg/kg vs IV 3 mg/kg, read-out: Bioavailability F) came out at 74%.

On hERG ion channel, `CN(C(=O)c1cc2c(cn1)nc(N)c1cncn12)[C@@H]1COc2cc(C(F)(F)F)ccc21` [Example 4, (S)-4-amino-N-methyl-N-(6-(trifluoromethyl)-2,3-dihydrobenzofuran-3-yl)imidazo[1,5-a] pyrido[3,4-e] pyrazine-8-carboxamide] gave a half-maximal inhibitory concentration (IC50) of 5.29 µM. In data set [1] (IV 3 mg/kg), this molecule had an AUC(0-t) of 8.09 µg·h/mL and a half-life of 4.06 h. In data set [1] (PO 10 mg/kg), the AUC(0-t) was found to be 21 µg·h/mL and the half-life was 2.67 h.

With `CN(C(=O)c1ccc2nc(N)c3cncn3c2c1)[C@@H]1COc2nc(C(F)(F)F)ccc21` (single isomer, unassigned) [Example 90], the half-inhibitory concentration (IC50) in data set [2] was 0.0364 µM; in data set [3], greater than 10 µM.

The term IC50 denotes the concentration at which inhibition is half-maximal. Higher therefore signals weaker potency. Usually AUC(0-t) stands for the area under the concentration-time curve up to a stated or last time point. A higher AUC(0-t) goes with more exposure. Usually half-life stands for how long it takes for the measured level to halve. Lower therefore signals fast loss. In general, bioavailability refers to the share of a dose that reaches the circulation, judged against a reference dose that is usually intravenous.
